Test results from publication PMC6368403, “Identification of a bilirubin receptor that may mediate a component of cholestatic itch” (eLife, 2019).
Several values for one entry are separate records, joined by “and”; a condition that tells them apart may be missing. Identical values can stand only once. Square brackets hold non-standard residues; d marks the D form. Peptide text beside a SMILES is read from it. * marks the point of attachment. Boc = CC(C)(C)OC(=O)*; OBn = c1ccc(CO*)cc1; For = O=C*

What was measured:
mice = assay: Plasma injection assay: scratching bouts after injection of mouse or human plasma; format: in vivo; conditions: plasma treated with FeCl3 (vs NT), one value per animal
Source text: Plasma from patients suffering from hyperbilirubinemia, specifically cholestasis, was isolated under a protocol approved by the Institutional Review Board at the Johns Hopkins University School of Medicine (Study number: IRB00154650). […] Both cholestatic and control plasma were isolated under protocols approved by the Institutional Review Board at the Johns Hopkins University School of Medicine (Cholestasis Study number: IRB00154650; Control study number: NA_00013177, the Johns Hopkins Department of Dermatology Patient Database and Tissue Bank). Whole blood was collected into PAXgene tubes (PreAnalytiX 761115) and centrifuged for 5 min at 300 g. Plasma was then collected, aliquoted, and stored at −20°C until experimentation. […] All applicable behavioral tests were performed and analysed with the experimenter blind to genotype. […] There were no significant differences in itch between male and female mice. […] On the day before the experiment, animals were placed in the test chamber for 30 min before being subjected to a series of three mock injections with 5 min break periods in between. On the day of the experiment, animals were first allowed to acclimatize to the test chamber for 10 min before injection. […] A bout of scratching was defined as a continuous scratching movement with either hindpaw directed at the area of the injection site. In the cheek injection model, a wipe was defined as a single forepaw stroking the site of the injection. Use of both forepaws on the face or cheek was considered as grooming behavior. […] For H1R block, 30 mg/kg of cetirizine HCl (pH 7.4) was given intraperitoneally thirty minutes prior to injection of bilirubin. Licking behavior was quantified in seconds and identified as the licking of the toes or footpad of the hind paw site of injection that was neither preceded nor followed by licking of any other portion of the body.

[1] = target: MRGPRA1, GFP-tagged (mouse) (UniProt Q91WW5)
Sequence of MRGPRA1, GFP-tagged (mouse) (Q91WW5 whole entry): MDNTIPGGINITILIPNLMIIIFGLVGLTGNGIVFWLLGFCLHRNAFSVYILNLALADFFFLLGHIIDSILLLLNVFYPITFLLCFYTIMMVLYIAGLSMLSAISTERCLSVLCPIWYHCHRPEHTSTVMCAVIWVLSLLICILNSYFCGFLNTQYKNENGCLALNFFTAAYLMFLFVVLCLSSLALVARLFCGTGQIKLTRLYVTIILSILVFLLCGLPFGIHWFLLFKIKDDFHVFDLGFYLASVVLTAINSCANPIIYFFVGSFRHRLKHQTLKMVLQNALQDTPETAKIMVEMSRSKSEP

[2] = cited from earlier work
[3] = mouse, in vivo, 1 mg/kg

## [Cl][Fe]([Cl])[Cl] [FeCl3]
mice; NT values equal cholestasis WT c1 of sheet Fig 7 - CD
  Scratching bouts after injection of plasma: 75 and 132 and 54 and 111 and 173 and 58 and 34
mice; NT/FeCl3 pair, NT values equal cholestasis WT c7 of sheet Fig 7 - CD
  Scratching bouts after injection of plasma: 117 and 53 and 60 and 54 and 67
mice; NT/FeCl3 pair, plasma source not given
  Scratching bouts after injection of plasma: 45 and 53 and 51 and 41 and 34

## QWF (BOC-GLN-D-(FORMYL)TRP-PHE-BENZYLESTER) (peptide)
[1]
  inhibition of the bilirubin-induced Ca2+ signal in MRGPRA1-expressing HEK cells (200 µM bilirubin kept in competition with varied doses of QWF): 2.9 µM

## CC(C)(C)OC(=O)N[C@@H](CCC(N)=O)C(=O)N[C@H](Cc1cn(C=O)c2ccccc12)C(=O)N[C@@H](Cc1ccccc1)C(=O)OCc1ccccc1 [QWF, BOC-GLN-D-(FORMYL)TRP-PHE-BENZYLESTER] (Boc-Gln-[dW](For)-Phe-OBn)
[2]
  t1/2 in plasma: 1.17 h
[3]
  Plasma levels of total bilirubin, AST, ALT, ALP: did not change plasma levels of total bilirubin, AST, ALT, or ALP
